Experimental data reported in publication PMC3739823, “Structural Guided Scaffold Phage Display Libraries as a Source of Bio-Therapeutics” (PLoS ONE, 2013).
No end group written: not given here.

Key:
[1] = system: αvβ6-expressing cells; experiment: Internalisation assay, αvβ6-expressing cells (confocal microscopy); conditions: for nuclear localisation / time of efficient internalisation: biotinylated peptide 100 nM; for nuclear localisation / time of efficient internalisation / cellular internalisation in αvβ6-expressing cells: 37°C; for cellular internalisation in αvβ6-expressing cells: scFv 4 uM or biotinylated peptide 100 nM, confocal microscopy
[2] = system: αvβ6-negative cells; experiment: Internalisation assay, αvβ6-negative cells (confocal microscopy); conditions: scFv 4 uM or biotinylated peptide 100 nM, 37°C
[3] = system: A375Ppuro cells; experiment: Flow cytometry binding to αvβ6-negative cells; assay type: cell-based; conditions: for binding to αvβ6-negative cells (Figure S1): biotinylated peptide at 1 uM, A375Ppuro, rabbit anti-biotin IgG then anti-rabbit IgG-Alexafluor 488; for binding to αvβ6-negative cells: flow cytometry, A375Ppuro (αvβ3, αvβ5, αvβ8, α5β1 positive), dose dependent binding analysis, 0.1 or 1 uM
Experimental: (§1) The adherent melanoma cell lines A375Pβ6 and A375Ppuro, described previously were cultured in Dulbecco's Modified Eagles' Medium (DMEM) supplemented with 10% Foetal Calf Serum (FCS). The human oral squamous cell carcinoma VB6, which was engineered to express high levels of αvβ6, was grown in Keratinocyte Growth Medium as described.
(§2) Purified scFv were tested for specificity for αvβ6 by flow cytometry using the isogenic pairs of cell lines, A375Pβ6 and A375Ppuro, or DX3β6 and DX3puro. Each pair expresses similar levels of four RGD-binding integrins (αvβ3, αvβ5, αvβ8, α5β1) but only A375Pβ6 and DX3β6 express αvβ6 [14], [22], [30]. Briefly, cells were detached with trypsin/EDTA, rinsed twice in ice-cold wash buffer (0.1% BSA/DMEM/0.1% NaN3) and approximately 2×10^5 cells re-suspended in 50 µl of wash buffer per sample. In between all incubation steps, all samples were washed twice with wash buffer unless otherwise stated. Cells were incubated on ice for 1 hr with 0.1 or 1 uM purified scFv of peptide, washed twice. For scFv, cells were then incubated for 1 hr on ice with mouse anti-Myc antibody (clone 9E10, Santa Cruz) at 1∶100. After washing, bound antibody was detected with anti-mouse IgG-Alexaflour 488 (1∶250 for 1 h; Molecular Probes), on ice. […] Cells were analysed using the FACSCalibur (Beckton Dickinson). Cell expression of αvβ6 integrin was detected with mouse monoclonal antibody (clone 10D5, 10 µg/ml; Millipore) and non-specific (control) binding with non-immune class matched IgG.
Supplementary file pone.0070452.s001.tif: Figure S1 A375Ppuro cells were incubated with biotinylated D25p or D34p at 1 uM. Bound peptide was detected with rabbit anti-biotin IgG (1∶200), followed by anti-rabbit IgG-Alexafluor 488 (1∶250; Molecular Probes). […] Black histograms represent controls where peptides were omitted. (TIF) Click here for additional data file.

[4] = system: A375Pβ6 cells (cellular αvβ6); experiment: Flow cytometry binding to αvβ6-expressing cells; assay type: cell-based; conditions: for binding to αvβ6-expressing cells: flow cytometry, dose dependent binding analysis, 0.1 or 1 uM, 1 hr on ice, MFI
Experimental: as §1, §2

[5] = system: cellular αvβ6; experiment: Inhibition of A20FMDV2 binding to cellular αvβ6 (flow cytometry); assay type: cell-based; conditions: 0.1 and 1.0 µM, 10 min pre-incubation, 40 min with 10 nM biotinylated A20FMDV2; % of MFI without inhibitor
[6] = Size-exclusion chromatography (FPLC) of purified scFv
[7] = system: αvβ6-dependent adhesion of carcinoma cells to immobilised fibronectin; experiment: αvβ6-dependent adhesion to fibronectin (Picogreen adhesion assay); assay type: cell-based; conditions: for inhibition of αvβ6-dependent adhesion to fibronectin: fibronectin 10 ug/ml, 30 min at 37°C, quadruplicate, repeated at least 2-3 times
Experimental: All adhesion assays were performed in quadruplicate and repeated at least 2–3 times. In a 96-well plate format, test wells were coated with Fibronectin (10 ug/ml/PBS) and negative control wells were coated with 0.1% BSA (bovine serum albumin)/PBS. After incubation at 37°C for 1 hour, plates were washed in PBS twice and blocked with 0.1% BSA/PBS for 30 mins at 37°C. Following a PBS rinse, cells were seeded into the wells, the plate resting on ice to avoid dehydration and to ensure an initial uniform temperature for the experiment. Purified scFv or peptide was added (25 ul) to the wells at the desired concentrations, before adding 1.5×10^4 cells (25 ul) per well. In some experiments, cells (1.5×10^4) were pre-treated with β1 blocking antibody AIIB2 at 10 ug/ml before seeding into test wells to block the β1-dependent fibronectin adhesion. To determine percentage adhesion, standard curves were generated by plating 0–2.5×10^4 cells in separate wells. After incubating plates at 37°C for 30′ plates were washed twice in 1 mM CaCl2/0.5 mM MgCl2/PBS and transferred into −80°C for 15 mins. Adherent cells were quantified using a Picogreen kit (Invitrogen) and analysed on a fluorescence reader (FLUOstar Optima, BMG Labtech Ltd, Bucks, UK).

[8] = system: recombinant αvβ6; experiment: Monoclonal scFv screening ELISA / binding to immobilised recombinant αvβ6; conditions: specific binding to recombinant αvβ6, summary statement
Experimental: Figure 2 Screening of phage clones isolated from the α-helix & 3_10-helix libraries. A) Monoclonal scFv screening ELISA testing 96 clones in each library. Bacterial supernatants were added to 5 µg/ml recombinant αvβ6 immobilized onto ELISA plate and then probed with mouse anti-Myc antibody followed by anti-mouse-HRP. B) Clones with unique sequences were screened for binding cellular αvβ6 by flow cytometry. […] For clarity the relevant αvβ6-specific mouse monoclonal antibody 10D5 (grey) and the negative control IgG (black) histograms are also shown in each plot. […] TEXT PRINTED IN THE PICTURE: (C) D25: 30kDa | (C) D34: 30kDa
The α-helix and 3_10 libraries were each rescued separately KM13 helper phage as described previously. For selection, we used in parallel each library separately as well as mixed alpha helix and 3_10 libraries. The initial phage selection was performed using immobilised recombinant αvβ6 protein as described previously, [29] and http://www.lifesciences.sourcebioscience.com/ media/143421/tomlinsonij.pdf. After two rounds of selection on immobilised αvβ6 we then selected the libraries on cell-expressed αvβ6 using A375Pβ6 and A375PPuro cell lines, for αvβ6-positive and αvβ6-negative selection, respectively, [22]. First line screening were done by ELISA using 5 µg/ml immobilised recombinant αvβ6 as described.

Substance	nuclear localisation ([1]; αvβ6-expressing cells)	time of efficient internalisation ([1]; αvβ6-expressing cells) [min]	cellular internalisation in αvβ6-expressing cells [1]	cellular internalisation in αvβ6-negative cells [2]	binding to αvβ6-negative cells (Figure S1) [3]	binding to αvβ6-negative cells [3]	comparison of binding to cellular αvβ6, D34scFv versus D25scFv ([4]; discussion statement)	binding to αvβ6-expressing cells [4]	binding to cellular αvβ6, flow cytometry verification ([4]; scFv at 100, 10 and 1 µg/ml)	inhibition of A20FMDV2 binding to cellular αvβ6 [5]	size-exclusion lower peaks elution volume ([6]; HiPrep 16/60 sephacryl S-200, PBS, 0.3 ml/min, 280 nm, scFv dimers and tetramers) [mL]	size-exclusion major peak, apparent molecular weight ([6]; HiPrep 16/60 sephacryl S-200, PBS, calibration curve) [kDa]	oligomerisation by size-exclusion chromatography ([6]; lower peaks at 45–60 ml, PBS)	cellular localisation at 0 minutes ([1]; scFv 4 uM, 0 minutes, αvβ6-expressing cells)	cellular localisation at 45 minutes ([1]; scFv 4 uM, 37°C for 45 minutes, αvβ6-expressing cells)	inhibition of αvβ6-dependent adhesion to fibronectin [7]	comparison of adhesion inhibition, D25scFv vs D34scFv ([7]; p>0.05)	binding to recombinant αvβ6 [8]	comparison of inhibition of αvβ6-cellular function, D25p vs D34p ([7]; discussion statement)	comparison of adhesion inhibition, D25p vs D34p ([7]; p = 0.0156, Wilcoxon matched-pairs signed rank test)
biotinylated-D34p: biotinylated D34p peptide (QPRGDLRELAARSEAQLQEKGI; also: biotinylated, position not given here)	no nuclear localisation	30 to 45	cellular internalisation in αvβ6-expressing cells	not in αvβ6-negative cells																
biotinylated-D25p: biotinylated D25p peptide (EPRGDLRTLAAREKRNFNETLARLQEKGI; also: biotinylated, position not given here)	no nuclear localisation	30 to 45	cellular internalisation in αvβ6-expressing cells	not in αvβ6-negative cells	no significant binding															
D25scFv: human scFv clone with synthetic VH-CDR3 encoding RGD α-helix, EP RGDLRTLAAREKRNFNETLAR LQEKGI			cellular internalisation in αvβ6-expressing cells	not in αvβ6-negative cells		not A375Ppuro	no difference in binding	αvβ6-specific binding to A375Pβ6 cells	Binding to cellular αvβ6	dose-dependent inhibition	45 to 60	30	scFv dimers and tetramers	localised at the cell surface	localised within the cell cytoplasm and nucleus	significant concentration-dependent inhibition	similarly inhibited	specific binding to recombinant and cellular αvβ6		
EP RGDLRTLAAREKRNFNETLAR LQEKGI [D25p, VH-CDR3 derived peptide of D25scFv, 29 amino-acids]						not A375Ppuro		αvβ6-specific binding to A375Pβ6 cells		dose-dependent inhibition						significant concentration-dependent inhibition		specific binding to recombinant and cellular αvβ6	more efficient inhibitor of αvβ6-cellular function than D34p	significantly stronger than D34p
QP RGDLRELAARSEAQLQEKGI [D34p, VH-CDR3 derived peptide of D34scFv, 22 amino-acids]					no significant binding	not A375Ppuro		αvβ6-specific binding to A375Pβ6 cells		dose-dependent inhibition						significant concentration-dependent inhibition		specific binding to recombinant and cellular αvβ6		
